Here are results for 25 compounds from ChEMBL document CHEMBL4340553 (Bioorg Med Chem, 2019).

The test system of experiment [1] is NCI-H460. In words: Cytotoxicity in human NCI-H460 cells assessed as reduction in cell viability incubated for 72 hrs by MTT assay. Conditions: NCI-H460, 72 h.
For experiment [2], the system named is HT-29. In words: Cytotoxicity in human HT-29 cells assessed as reduction in cell viability incubated for 72 hrs by MTT assay. To be noted: HT-29, 72 h.
For experiment [3], the system named is MKN-45. In words: Cytotoxicity in human MKN45 cells assessed as reduction in cell viability incubated for 72 hrs by MTT assay. Conditions: MKN-45, 72 h.
Experiment [4] has as its system MDA-MB-231. In words: Cytotoxicity in human MDA-MB-231 cells assessed as reduction in cell viability incubated for 72 hrs by MTT assay. Conditions: MDA-MB-231, 72 h.
The target in experiment [5] is Vascular endothelial growth factor receptor 2 (Homo sapiens, UniProt P35968). In words: Inhibition of KDR (unknown origin) using poly (Glu, Tyr) 4:1 substrate incubated for 30 mins by HTRF assay.
In experiment [6] the target is ALK tyrosine kinase receptor (Homo sapiens, UniProt Q9UM73). The experiment is described as follows: Inhibition of ALK (unknown origin) using poly (Glu, Tyr) 4:1 substrate incubated for 30 mins by HTRF assay.
Experiment [7] deals with Hepatocyte growth factor receptor (Homo sapiens, UniProt P08581). In words: Inhibition of c-Met (unknown origin) using poly (Glu, Tyr) 4:1 substrate incubated for 30 mins by HTRF assay.
For experiment [8], the target named is T1, Receptor-type tyrosine-protein kinase FLT3 (Homo sapiens, UniProt P36888).
T1 sequence (P36888 whole entry): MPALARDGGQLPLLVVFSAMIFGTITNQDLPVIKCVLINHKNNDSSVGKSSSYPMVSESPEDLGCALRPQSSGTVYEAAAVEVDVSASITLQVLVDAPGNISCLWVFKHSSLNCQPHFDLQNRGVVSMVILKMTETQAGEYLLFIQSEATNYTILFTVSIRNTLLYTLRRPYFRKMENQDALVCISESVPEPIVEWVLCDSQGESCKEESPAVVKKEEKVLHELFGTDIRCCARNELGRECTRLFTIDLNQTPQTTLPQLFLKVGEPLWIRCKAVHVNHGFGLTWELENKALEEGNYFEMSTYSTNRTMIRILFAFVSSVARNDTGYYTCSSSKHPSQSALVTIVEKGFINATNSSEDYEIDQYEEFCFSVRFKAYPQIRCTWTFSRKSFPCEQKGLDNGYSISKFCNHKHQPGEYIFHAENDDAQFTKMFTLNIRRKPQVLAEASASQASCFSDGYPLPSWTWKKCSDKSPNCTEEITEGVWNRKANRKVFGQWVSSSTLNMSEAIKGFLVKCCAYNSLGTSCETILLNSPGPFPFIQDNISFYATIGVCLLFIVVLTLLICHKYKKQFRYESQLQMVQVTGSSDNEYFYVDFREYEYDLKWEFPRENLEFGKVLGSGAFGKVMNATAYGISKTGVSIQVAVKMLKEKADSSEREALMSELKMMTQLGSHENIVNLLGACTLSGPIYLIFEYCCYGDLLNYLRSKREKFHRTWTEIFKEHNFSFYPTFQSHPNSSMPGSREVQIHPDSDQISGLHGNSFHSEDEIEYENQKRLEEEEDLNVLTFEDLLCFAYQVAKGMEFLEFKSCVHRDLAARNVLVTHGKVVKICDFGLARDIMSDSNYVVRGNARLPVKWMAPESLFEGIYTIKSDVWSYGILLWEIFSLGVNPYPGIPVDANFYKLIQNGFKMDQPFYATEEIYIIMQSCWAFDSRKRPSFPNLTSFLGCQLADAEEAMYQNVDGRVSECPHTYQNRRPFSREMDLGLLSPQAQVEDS
The experiment is described as follows: Inhibition of FLT3 (unknown origin) using poly (Glu, Tyr) 4:1 substrate incubated for 30 mins by HTRF assay.

Experiment [9] concerns the target Platelet-derived growth factor receptor beta (Homo sapiens, UniProt P09619). The experiment is described as follows: Inhibition of PDGFRbeta (unknown origin) using poly (Glu, Tyr) 4:1 substrate incubated for 30 mins by HTRF assay.
Experiment [10] concerns the target Mast/stem cell growth factor receptor Kit (Homo sapiens, UniProt P10721). In words: Inhibition of c-Kit (unknown origin) using poly (Glu, Tyr) 4:1 substrate incubated for 30 mins by HTRF assay.
In experiment [11] the target is Macrophage-stimulating protein receptor (Homo sapiens, UniProt Q04912). The experiment is described as follows: Inhibition of RON (unknown origin) using poly (Glu, Tyr) 4:1 substrate incubated for 30 mins by HTRF assay.
In experiment [12] the target is Vascular endothelial growth factor receptor 1 (Homo sapiens, UniProt P17948). The experiment is described as follows: Inhibition of FLT1 (unknown origin) using poly (Glu, Tyr) 4:1 substrate incubated for 30 mins by HTRF assay.
The target in experiment [13] is Platelet-derived growth factor receptor alpha (Homo sapiens, UniProt P16234). In words: Inhibition of PDGFRalpha (unknown origin) using poly (Glu, Tyr) 4:1 substrate incubated for 30 mins by HTRF assay.
For experiment [14], the target named is Epidermal growth factor receptor (Homo sapiens, UniProt P00533). In words: Inhibition of EGFR (unknown origin) using poly (Glu, Tyr) 4:1 substrate incubated for 30 mins by HTRF assay.
Experiment [15] can be described thus: Inhibition of VEGFR (unknown origin) using poly (Glu, Tyr) 4:1 substrate incubated for 30 mins by HTRF assay. Also noted: species or system Homo sapiens.

Vascular endothelial growth factor receptor 2, sequence (P35968 whole entry): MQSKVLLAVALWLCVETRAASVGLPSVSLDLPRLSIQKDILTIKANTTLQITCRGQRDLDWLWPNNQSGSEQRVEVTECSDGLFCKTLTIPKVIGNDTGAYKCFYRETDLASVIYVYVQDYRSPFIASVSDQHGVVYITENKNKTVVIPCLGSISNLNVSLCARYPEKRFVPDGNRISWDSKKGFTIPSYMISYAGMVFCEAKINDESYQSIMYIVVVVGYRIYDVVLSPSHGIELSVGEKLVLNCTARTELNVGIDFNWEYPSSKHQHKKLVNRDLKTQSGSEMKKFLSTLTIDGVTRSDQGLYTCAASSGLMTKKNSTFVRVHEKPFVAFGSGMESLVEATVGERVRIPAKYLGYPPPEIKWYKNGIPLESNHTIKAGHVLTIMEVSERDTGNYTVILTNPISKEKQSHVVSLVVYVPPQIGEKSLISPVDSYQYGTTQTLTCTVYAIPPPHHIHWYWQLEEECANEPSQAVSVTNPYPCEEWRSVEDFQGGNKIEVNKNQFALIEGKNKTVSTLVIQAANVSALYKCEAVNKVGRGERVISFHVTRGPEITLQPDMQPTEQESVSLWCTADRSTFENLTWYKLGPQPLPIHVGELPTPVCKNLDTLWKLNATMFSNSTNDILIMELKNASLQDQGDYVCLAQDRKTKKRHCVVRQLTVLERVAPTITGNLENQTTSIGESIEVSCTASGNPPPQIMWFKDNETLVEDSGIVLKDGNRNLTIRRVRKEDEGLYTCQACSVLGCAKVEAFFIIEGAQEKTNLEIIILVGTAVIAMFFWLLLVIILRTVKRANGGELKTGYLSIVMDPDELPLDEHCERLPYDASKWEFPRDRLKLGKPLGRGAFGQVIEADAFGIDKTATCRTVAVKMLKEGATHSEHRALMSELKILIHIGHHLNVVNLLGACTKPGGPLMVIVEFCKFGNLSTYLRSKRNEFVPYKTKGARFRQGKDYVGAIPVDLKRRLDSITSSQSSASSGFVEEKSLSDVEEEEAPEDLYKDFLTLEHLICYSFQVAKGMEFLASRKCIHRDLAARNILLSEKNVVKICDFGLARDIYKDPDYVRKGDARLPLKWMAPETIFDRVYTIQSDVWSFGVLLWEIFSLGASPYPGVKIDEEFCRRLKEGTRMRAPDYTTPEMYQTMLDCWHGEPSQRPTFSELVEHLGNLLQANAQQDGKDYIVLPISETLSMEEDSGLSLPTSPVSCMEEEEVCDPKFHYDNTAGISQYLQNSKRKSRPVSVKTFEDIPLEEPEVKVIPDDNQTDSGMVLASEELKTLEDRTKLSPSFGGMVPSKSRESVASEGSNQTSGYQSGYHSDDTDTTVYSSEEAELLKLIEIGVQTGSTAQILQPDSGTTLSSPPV
Vascular endothelial growth factor receptor 1, sequence (P17948 whole entry): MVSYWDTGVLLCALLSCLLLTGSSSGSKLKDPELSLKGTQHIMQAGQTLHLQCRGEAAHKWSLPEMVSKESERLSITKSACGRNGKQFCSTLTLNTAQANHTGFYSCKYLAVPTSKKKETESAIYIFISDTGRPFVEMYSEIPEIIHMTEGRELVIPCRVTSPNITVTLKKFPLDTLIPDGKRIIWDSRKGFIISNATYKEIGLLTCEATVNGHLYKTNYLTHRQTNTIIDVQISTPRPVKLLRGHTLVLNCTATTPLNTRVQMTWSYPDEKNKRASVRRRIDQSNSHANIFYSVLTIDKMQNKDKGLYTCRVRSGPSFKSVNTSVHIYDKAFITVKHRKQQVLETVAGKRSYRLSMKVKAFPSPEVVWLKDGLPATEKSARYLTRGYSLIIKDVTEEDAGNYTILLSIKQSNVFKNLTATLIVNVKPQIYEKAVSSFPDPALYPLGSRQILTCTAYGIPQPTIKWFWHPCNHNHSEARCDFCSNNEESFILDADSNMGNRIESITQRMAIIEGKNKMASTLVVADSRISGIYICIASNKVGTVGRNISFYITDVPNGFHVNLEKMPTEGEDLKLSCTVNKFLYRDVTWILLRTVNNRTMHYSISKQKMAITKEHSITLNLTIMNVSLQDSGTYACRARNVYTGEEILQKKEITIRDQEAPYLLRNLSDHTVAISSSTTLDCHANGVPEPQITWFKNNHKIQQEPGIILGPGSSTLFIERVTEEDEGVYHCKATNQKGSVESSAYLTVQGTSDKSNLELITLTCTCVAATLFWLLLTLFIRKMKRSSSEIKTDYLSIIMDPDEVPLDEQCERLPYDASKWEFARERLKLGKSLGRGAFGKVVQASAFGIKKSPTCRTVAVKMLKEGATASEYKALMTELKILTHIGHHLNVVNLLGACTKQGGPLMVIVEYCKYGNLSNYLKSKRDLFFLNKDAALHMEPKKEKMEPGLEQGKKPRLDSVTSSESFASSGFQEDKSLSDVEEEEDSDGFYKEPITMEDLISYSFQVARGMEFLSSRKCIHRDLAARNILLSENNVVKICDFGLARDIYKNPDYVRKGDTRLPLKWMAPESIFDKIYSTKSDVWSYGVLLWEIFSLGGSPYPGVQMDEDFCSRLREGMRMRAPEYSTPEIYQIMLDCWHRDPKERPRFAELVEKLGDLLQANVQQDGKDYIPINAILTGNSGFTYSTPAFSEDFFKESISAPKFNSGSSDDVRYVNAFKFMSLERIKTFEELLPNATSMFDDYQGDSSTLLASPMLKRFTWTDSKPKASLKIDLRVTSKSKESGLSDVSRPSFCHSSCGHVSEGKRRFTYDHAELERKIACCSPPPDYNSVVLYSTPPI
Mast/stem cell growth factor receptor Kit, sequence (P10721 whole entry): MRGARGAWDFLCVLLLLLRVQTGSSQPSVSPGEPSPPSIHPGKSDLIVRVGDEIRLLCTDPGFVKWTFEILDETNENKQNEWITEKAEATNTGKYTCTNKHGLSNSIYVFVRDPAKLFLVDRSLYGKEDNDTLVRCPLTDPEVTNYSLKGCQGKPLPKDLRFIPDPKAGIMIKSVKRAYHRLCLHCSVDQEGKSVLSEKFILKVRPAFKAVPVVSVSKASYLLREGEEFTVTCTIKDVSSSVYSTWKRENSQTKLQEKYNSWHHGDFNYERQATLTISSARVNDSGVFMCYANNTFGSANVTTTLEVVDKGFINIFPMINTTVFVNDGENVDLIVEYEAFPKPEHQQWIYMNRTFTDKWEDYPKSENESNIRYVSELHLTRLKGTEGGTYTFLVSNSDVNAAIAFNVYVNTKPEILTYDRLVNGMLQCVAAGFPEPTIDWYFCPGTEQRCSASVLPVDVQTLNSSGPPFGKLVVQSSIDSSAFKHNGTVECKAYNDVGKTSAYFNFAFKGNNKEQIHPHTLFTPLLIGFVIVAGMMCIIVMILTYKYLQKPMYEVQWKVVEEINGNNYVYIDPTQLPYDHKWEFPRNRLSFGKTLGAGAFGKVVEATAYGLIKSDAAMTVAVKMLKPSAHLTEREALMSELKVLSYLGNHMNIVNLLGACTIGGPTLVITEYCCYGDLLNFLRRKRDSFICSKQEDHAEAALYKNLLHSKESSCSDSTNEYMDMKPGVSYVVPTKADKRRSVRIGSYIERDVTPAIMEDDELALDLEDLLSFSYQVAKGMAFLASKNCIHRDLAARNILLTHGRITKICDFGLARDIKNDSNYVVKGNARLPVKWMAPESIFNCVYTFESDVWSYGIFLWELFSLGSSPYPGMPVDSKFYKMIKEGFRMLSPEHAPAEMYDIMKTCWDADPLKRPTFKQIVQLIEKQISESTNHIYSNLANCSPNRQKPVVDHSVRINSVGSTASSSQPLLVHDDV
Hepatocyte growth factor receptor, sequence (P08581 whole entry): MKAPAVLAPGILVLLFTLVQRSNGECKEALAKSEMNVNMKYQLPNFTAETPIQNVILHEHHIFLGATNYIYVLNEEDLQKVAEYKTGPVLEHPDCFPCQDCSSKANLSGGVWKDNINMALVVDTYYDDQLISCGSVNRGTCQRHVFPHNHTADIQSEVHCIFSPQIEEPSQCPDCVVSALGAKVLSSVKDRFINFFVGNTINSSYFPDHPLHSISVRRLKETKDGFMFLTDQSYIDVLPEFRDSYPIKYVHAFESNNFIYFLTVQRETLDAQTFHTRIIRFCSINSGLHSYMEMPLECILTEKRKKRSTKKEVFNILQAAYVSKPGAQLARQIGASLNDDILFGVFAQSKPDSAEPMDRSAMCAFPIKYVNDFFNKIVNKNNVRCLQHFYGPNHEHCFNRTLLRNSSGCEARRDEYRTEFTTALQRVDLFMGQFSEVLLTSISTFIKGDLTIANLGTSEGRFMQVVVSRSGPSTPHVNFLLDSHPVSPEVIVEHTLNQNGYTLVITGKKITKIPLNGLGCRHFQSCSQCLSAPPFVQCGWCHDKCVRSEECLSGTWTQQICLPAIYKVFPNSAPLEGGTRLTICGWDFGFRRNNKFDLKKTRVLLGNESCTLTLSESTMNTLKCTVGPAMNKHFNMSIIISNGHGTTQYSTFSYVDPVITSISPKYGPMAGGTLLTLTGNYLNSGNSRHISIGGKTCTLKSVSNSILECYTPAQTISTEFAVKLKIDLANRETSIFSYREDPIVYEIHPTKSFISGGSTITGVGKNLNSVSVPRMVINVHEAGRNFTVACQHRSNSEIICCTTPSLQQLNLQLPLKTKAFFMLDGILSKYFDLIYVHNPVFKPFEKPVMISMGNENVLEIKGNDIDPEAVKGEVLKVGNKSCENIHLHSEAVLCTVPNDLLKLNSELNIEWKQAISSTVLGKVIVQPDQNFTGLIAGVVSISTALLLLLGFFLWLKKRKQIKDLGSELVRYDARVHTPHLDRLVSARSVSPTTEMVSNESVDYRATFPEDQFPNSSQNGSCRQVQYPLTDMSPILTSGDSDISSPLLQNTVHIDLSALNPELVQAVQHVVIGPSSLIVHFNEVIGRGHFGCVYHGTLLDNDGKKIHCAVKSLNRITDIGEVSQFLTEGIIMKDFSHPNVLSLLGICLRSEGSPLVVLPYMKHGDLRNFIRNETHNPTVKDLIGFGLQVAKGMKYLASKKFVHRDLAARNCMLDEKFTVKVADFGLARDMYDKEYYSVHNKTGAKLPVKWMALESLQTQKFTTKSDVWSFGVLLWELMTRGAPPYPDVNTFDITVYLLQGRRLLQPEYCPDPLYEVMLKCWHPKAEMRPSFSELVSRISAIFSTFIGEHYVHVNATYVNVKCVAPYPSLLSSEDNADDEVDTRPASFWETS

As to `COc1cc2c(Oc3ccc(NC(=O)NS(=O)(=O)Cc4ccc(C)cc4)cc3F)ccnc2cc1OCCCN1CCCCC1`, the IC50 in experiment [1] worked out at 920 nM; in [2], 2170 nM; in experiment [3] it was 1130 nM; in experiment [4], 2540 nM.
For `COc1cc2nccc(Oc3ccc(NC(=O)NS(=O)(=O)Cc4ccccc4)cc3F)c2cc1OC`, in that order: 1540 nM, 3020 nM, 1430 nM and 2450 nM.
In the case of `COc1cc2nccc(Oc3ccc(NC(=O)NS(=O)(=O)Cc4ccc(Cl)cc4)cc3F)c2cc1OC`, the 50% inhibitory concentration (IC50) in [1] worked out at 1450 nM; in experiment [2], 2880 nM; in experiment [3], 1420 nM; in [4], 3160 nM.
The corresponding values for `CCCCOc1cc2nccc(Oc3ccc(NC(=O)NS(=O)(=O)Cc4ccc(F)cc4)cc3F)c2cc1OC` are 1440 nM, 2880 nM, 1310 nM and 2290 nM.
Consider `COc1cc2nccc(Oc3ccc(NC(=O)NS(=O)(=O)Cc4ccccc4C)cc3F)c2cc1OC`, for which the IC50 in experiment [1] stood at 3020 nM; in experiment [2], 6210 nM; in experiment [3], 3420 nM; in [4], 5670 nM.
With `COc1cc2nccc(Oc3ccc(NC(=O)NS(=O)(=O)Cc4ccc(C(F)(F)F)cc4)cc3F)c2cc1OC`, the IC50 in experiment [1] amounted to 12200 nM; in [2] it was 8150 nM; in experiment [3], 10300 nM; in experiment [4] it was 9460 nM.
As to `COc1cc2nccc(Oc3ccc(NC(=O)NS(=O)(=O)Cc4ccc(C)cc4)cc3F)c2cc1OC`, the IC50 is 4770 nM in [1], 7150 nM in experiment [2], 5380 nM in experiment [3] and 7620 nM in experiment [4].
As to `COc1cc2c(Oc3ccc(NC(=O)NS(=O)(=O)Cc4ccc(C)cc4)cc3F)ccnc2cc1OCCCN1CCOCC1`, the IC50 in experiment [1] worked out at 1540 nM; in experiment [2], 3760 nM; in experiment [3] it was 1670 nM; in experiment [4], 3860 nM.
For the compound `COc1cc2c(Oc3ccc(NC(=O)NS(=O)(=O)Cc4ccccc4)cc3F)ccnc2cc1OCCCN1CCCC1`, the IC50 in experiment [1] worked out at 430 nM; in experiment [2], 930 nM; in [3], 610 nM; in experiment [4], 1210 nM.
`COc1cc2nccc(Oc3ccc(NC(=O)NS(=O)(=O)Cc4cccc(C)c4)cc3F)c2cc1OC`: the IC50 in experiment [1] was 3870 nM; in experiment [2], 6030 nM; in experiment [3] it was 4540 nM; in [4], 6560 nM.
Take `CCCCOc1cc2nccc(Oc3ccc(NC(=O)NS(=O)(=O)Cc4ccccc4)cc3F)c2cc1OC`: the IC50 was determined as 1840 nM in experiment [1], 3120 nM in [2], 1720 nM in [3] and 2400 nM in experiment [4].
As to `COc1cc2c(Oc3ccc(NC(=O)NS(=O)(=O)Cc4ccc(F)cc4)cc3F)ccnc2cc1OCCCN1CCCC1`, the IC50 in experiment [5] was 95 nM; in experiment [1] it was 55 nM; in [6], over 10000 nM; in [7] it was 1.98 nM; in experiment [8] it was 400 nM; in [9] it was 356 nM. Also, the IC50 came to 380 nM in [10]; 375 nM in [11]; 160 nM in experiment [2]; 64 nM in experiment [3]; 418 nM in experiment [12]; 242 nM in experiment [13]. Besides, the results for the IC50 in [14], in experiment [15] and in [4] were over 10000 nM, 689 nM and 490 nM, respectively.
In the case of `CCCCOc1cc2nccc(Oc3ccc(NC(=O)NS(=O)(=O)Cc4ccc(C)cc4)cc3F)c2cc1OC`, the 50% inhibitory concentration (IC50) in experiment [1] is 5870 nM; in experiment [2], 9320 nM; in [3] it was 6480 nM; in experiment [4], 8980 nM.
`COc1cc2nccc(Oc3ccc(NC(=O)NS(=O)(=O)Cc4cccc(F)c4)cc3F)c2cc1OC`: the IC50 is 1790 nM in [1], 3060 nM in experiment [2], 1630 nM in experiment [3] and 3530 nM in [4].
Take `COc1cc2c(Oc3ccc(NC(=O)NS(=O)(=O)Cc4ccc(F)cc4)cc3F)ccnc2cc1OCCCN1CCOCC1`: the IC50 in experiment [1] turned out to be 160 nM; in experiment [2], 340 nM; in experiment [3], 120 nM; in experiment [4], 780 nM.
Regarding `COc1cc2nccc(Oc3ccc(NC(=O)NS(=O)(=O)Cc4ccc(Cl)cc4Cl)cc3F)c2cc1OC`, the IC50 turned out to be 3540 nM in experiment [1], 2970 nM in experiment [2], 2240 nM in experiment [3] and 4560 nM in experiment [4].
As to `COc1cc2nccc(Oc3ccc(NC(=O)NS(=O)(=O)Cc4ccc(Br)cc4)cc3F)c2cc1OC`, the IC50 in experiment [1] was determined as 1650 nM; in experiment [2], 3120 nM; in experiment [3], 1420 nM; in [4] it was 2260 nM.
On to `COc1cc2nccc(Oc3ccc(NC(=O)NS(=O)(=O)Cc4ccccc4)cc3)c2cc1OC`, for which the IC50 in [1] came out at 2600 nM; in experiment [2], 4350 nM; in experiment [3] it was 2080 nM; in [4], 3840 nM.
For `COc1cc2nccc(Oc3ccc(NC(=O)NS(=O)(=O)Cc4ccc(F)cc4)cc3)c2cc1OC`, in that order: 1980 nM, 3250 nM, 1320 nM and 2640 nM.
For `COc1cc2c(Oc3ccc(NC(=O)NS(=O)(=O)Cc4ccccc4)cc3F)ccnc2cc1OCCCN1CCOCC1`, the IC50 came out at 600 nM in experiment [1], 1280 nM in experiment [2], 330 nM in [3] and 1080 nM in experiment [4].
Regarding `COc1cc2c(Oc3ccc(NC(=O)NS(=O)(=O)Cc4ccc(F)cc4)cc3F)ccnc2cc1OCCCN1CCCCC1`, the IC50 was determined as 150 nM in experiment [1], 320 nM in [2], 230 nM in experiment [3] and 600 nM in [4].
As for `COc1cc2c(Oc3ccc(NC(=O)NS(=O)(=O)Cc4ccccc4)cc3F)ccnc2cc1OCCCN1CCCCC1`, the IC50 in experiment [1] is 740 nM; in [2] it was 1230 nM; in experiment [3], 650 nM; in experiment [4] it was 1940 nM.
Take `COc1cc2nccc(Oc3ccc(NC(=O)NS(=O)(=O)Cc4ccccc4F)cc3F)c2cc1OC`: the IC50 is 1880 nM in [1], 3120 nM in experiment [2], 2020 nM in [3] and 2950 nM in [4].
For `COc1cc2nccc(Oc3ccc(NC(=O)NS(=O)(=O)Cc4ccc(F)cc4)cc3F)c2cc1OC`, in that order: 1040 nM, 2680 nM, 960 nM and 2040 nM.
As for `COc1cc2c(Oc3ccc(NC(=O)C4(C(=O)Nc5ccc(F)cc5)CC4)cc3F)ccnc2cc1OCCCN1CCOCC1` [FORETINIB], it took 4.96 nM to reach half-maximal inhibition in experiment [15] (IC50).
